From patent US5962516A, “Immunosuppressive compounds and methods” (priority 1999, dated 1999) come the findings set out here.

Counter-ions that a name gives are not always drawn. Like-named read-outs stand apart in the source and are kept apart here.

Experiment [1] deals with mixed lymphocyte reaction (spleen cells from female C57BL/6 mice, stimulated with Balb/C spleen cells). In words: Mixed lymphocyte reaction (MLR) assay. Type of experiment: cell-based, mouse. The conditions noted are these: 50% suppression of proliferation; for IC50: read-out: MLR Assay IC50. The method, then: Inhibition of cell proliferation by the subject compounds was assayed in the mixed lymphocyte reaction (MLR) (Bradley, 1980; Mishell, 1980). Spleen cells from female C57BL/6 mice, the "responder" cells, were prepared and co-cultured alone or in the presence of varying concentrations of the test compounds, with irradiated spleen cells prepared from female Balb/C mice, the "stimulator" cells. Prior irradiation of the stimulator cells rendered them unable to proliferate. A sample of the responder cells was also irradiated for use as a control. The non-irradiated responder cells proliferate in the presence of the allogenic stimulator cells. After a 78-hour incubation, tritiated thymidine was added to the mixed cell cultures, and incorporation of the labeled nucleotide into DNA was measured as an index of cell proliferation.
In this study, the responder cells (R) were spleen cells from female C57BL16 mice, and the stimulator cells (S) were spleen cells from female Balb/C mice 6 to 8 weeks of age (Jackson, Bar Harbor, Me.). The spleens were aseptically removed from the mice and placed into 10 ml of cold HBSS in a sterile petri dish. The spleen was cut in half and gently pressed between the frosted ends of 2 sterile microslides. The cell suspension was then filtered through sterile nylon mesh (Nytex, Tetco #HD-3-85) into a 15 ml conical polypropylene centrifuge tube and centrifuged at 200×g for 10 minutes in a Beckman GPR tabletop centrifuge (GH-3.7 Rotor). Following an additional wash in HBSS, the spleen cells were resuspended in RPMI 1640 medium (Gibco) containing 50 uM 2-mercaptoethanol, 2 mM glutamine, 100 U/ml penicillin, 100 μg/ml streptomycin and 10% heat-inactivated fetal bovine serum.
The stimulator cells (S) and part of the responder cells (R) were diluted at 10×10^6 cells/ml and irradiated at 20 cGy with a Cesium Irradiator (Department of Radiation Oncology, Stanford University, California) to inhibit proliferation. The irradiated cells were washed once to remove any toxic free radicals and their products resulting from irradiation. The responder cells (R), irradiated stimulator cells (Sx) and irradiated responder cell (Rx) were all diluted to 4×10^6 cells/ml.
In the assay, 4×10^5 cells of R were cocultured with 4×10^5 cells of Sx in 200 μl of medium in round bottom 96 well tissue culture plates. Fifty micro-liters of test samples at various concentrations were added to the cells. The wells receiving no test samples would get the maximum proliferation. Several controls were used in the assay. The irradiated responder cells (Rx) were also added to the responder cells with and without the test samples. Rx or Sx alone were checked to make sure no proliferation occurred after irradiation. The spontaneous proliferation of R was also measured.
The culture plates were incubated at 37° C. in a 5% CO2 incubator for four days. The cells were labelled with 1 μCi of (^3 H)-thymidine (Amersham, 49 Ci/mmol) in 20 μl of medium for the last 18 hours. Cells were then harvested and counted. The results were reported as counts per minute (cpm) per well. Percent of suppression and IC50 (concentration of sample producing 50% suppression of proliferation) were used to indicate the suppressive activity of the sample. Sample cpm was calculated as (R+Sx+sample)cpm-(R+Rx+sample)cpm; control cpm was calculated as (R+Sx)cpm-(R+Rx)cpm. Percent suppression of MLR activity was calculated as (1-sample cpm/control cpm)×100. IC50 was determined from percent suppression to indicate the suppressive activity of the sample.

Experiment [2] concerns IL-1β action on murine thymocytes. In words: Inhibition of IL-1 action (IL-1 assay): suppression of IL-1β + PHA stimulated murine thymocyte proliferation. Type of experiment: cell-based, mouse (C3H/HeN). The method, then: The ability of the above compounds to suppress the cell-proliferative effect of IL-1β in vitro (O'Gara, 1990) was examined as described in Example 11. Mouse thymocytes in culture were stimulated with IL-1β in the presence of phytohemagglutinin (PHA) and increasing concentrations of triptolide (control) and triptolide derivatives. The cells were cultured for 72 hours, and during the last 18 hours, incubated with tritiated thymidine. DNA synthesis was assessed by measuring incorporation of radiolabeled thymidine. The results expressed in terms of IC50 (concentration effective to cause 50% suppression of proliferation) are shown in Table 1.
C3H/HeN mouse thymocytes were prepared and the action of IL-1 together with PHA, which stimulate proliferation of thymocyte, was measured using standard techniques (O'Gara, 1990; Mishell, 1980). Three- to six-week old C3H/HeN male mice (Simonson Laboratory, Gilroy, Calif.) were sacrificed by CO2 inhalation. Thymi were removed, separated from adherent non-thymic tissue, homogenized in Hank's balanced salt solution (HBSS, Gibco) using a glass homogenizer, and centrifuged at 200×g for 10 minutes at 15° C. Following an additional wash in HBSS, the thymocytes were resuspended in RPMI 1640 medium containing 50 uM 2-mercaptoethanol, 2 mM glutamine, 1 mM sodium pyruvate, non-essential amino acids 100 U/ml penicillin, 100 μg/ml streptomycin, and 10% heat-inactivated fetal bovine serum.
Cells were cultured in round-bottom 96 well microtiter tissue culture plates, 6×10^5 cells per well, in a volume of 100 μl. Recombinant human IL-1β (R & D Systems #201-LB) together with Phytohemagglutinin P (PHA, Pharmacia) were added to the cells in volume of 25 μl per well to achieve a final concentration of 0.08 ng/ml and 10 μg/ml, respectively. Samples were dissolved in DMSO (10 mg/ml), then diluted in culture medium. Twenty five microliters of the test sample was added to each well to achieve the final compound concentrations for each experiment. Cells with PHA together with IL-1 served as controls. The total volume for each well was 150 μl.
Plates were incubated at 37° C. in a 5% CO2 incubator for 72 hours. Fifty microliters of culture medium containing 0.5 μCi (^3 H)-thymidine (Amersham, 49 Ci/mmol) was added to each well prior to the last 18 hours of incubation. Cells were then harvested and counted. The results were reported as counts per minute (cpm) per 6×10^5 cells.
The following formula was used to calculate the percent of suppression of IL-1 activity, and IC50 (concentration of sample yielding 50% suppression of proliferation) was used to indicate the suppressive activity of the sample.
% suppression of IL-1 activity=(1-sample cpm/(IL-1+PHA control

The mark [3] stands for this setting: 50% suppression of proliferation; 72 h culture.
[4] abbreviates: read-out: IL-1 Assay IC50; 50% suppression of proliferation; 72 h culture.

Usually IC50 stands for the point on the concentration scale where inhibition reaches its midpoint. With `CC(C)C12OC1C1OC13C1(C)CCC4=C(COC4=O)C1CC1OC13C2OC(=O)CCC(=O)O` (stereo not drawn) [YM-262, Triptolide Succinate], in experiment [1], the “MLR Assay IC50” value was 0.086 µg/mL and the IC50 was found to be 187 nM. Besides, in experiment [2] (setting [3]), the “IL-1 Assay IC50” value was 0.181 µg/mL. The IC50 in experiment [2] (setting [4]) worked out at 393 nM.

As for `CC(C)C12OC1C1OC13C1(C)CCC4=C(COC4=O)C1CC1OC13C2OC(=O)CCC(=O)O` (stereo not drawn) [YM-273, Triptolide Succinate Tris Salt], in experiment [1], the “MLR Assay IC50” value came to 0.18 µg/mL and the IC50 was found to be 310 nM. Also, the “IL-1 Assay IC50” value in experiment [2] (setting [3]) came out at 0.462 µg/mL. Besides, the IC50 in experiment [2] (setting [4]) came to 800 nM.

Take `CC(C)C12OC1C1OC13C1(C)CCC4=C(COC4=O)C1CC1OC13C2OC(=O)CCC(=O)O` (stereo not drawn) [YM-274, Triptolide Succinate Sodium Salt]: in experiment [1] (Succinate Sodium Salt), the “MLR Assay IC50” value came out at 0.09 µg/mL and the concentration for half-maximal inhibition (IC50) was determined as 187 nM. Besides, the “IL-1 Assay IC50” value in experiment [2] (50% suppression of proliferation; 72 h culture; Succinate Sodium Salt) worked out at 0.181 µg/mL. Besides, the IC50 in experiment [2] (read-out: IL-1 Assay IC50; 50% suppression of proliferation; 72 h culture; Succinate Sodium Salt) was 376 nM.

As to `CC(C)[C@]12O[C@H]1[C@@H]1O[C@]13[C@]1(O[C@H]1C[C@H]1C4=C(CC[C@@]13C)C(=O)OC4)[C@@H]2O` [Triptolide, triptolide, reference compound], the IC50 in experiment [1] (Mus musculus, Lymphocyte) was 0.0009 µg/mL; in experiment [2] (50% suppression of proliferation; 72 h culture; read-out: IL-1 Assay IC50) it was approximately 5 nM. Also, the “inhibition of IL-1β action in words” value in experiment [2] is “potent inhibitor of IL-1β action”.
